Experimental data: patent US20250290117A1, “MOLECULAR PHENOTYPIC ANTIMICROBIAL SUSCEPTIBILITY TESTING” (priority 2024, published 2025)

Assays:
E. coli = experiment: Molecular phenotypic antimicrobial susceptibility test with direct PCR (no extraction DNA purification step); assay type: cell-based, Escherichia coli
[1] = system: pathogens of clinical samples; experiment: Molecular phenotypic antimicrobial susceptibility test of clinical samples, direct PCR without a separate DNA purification step (Table 6); assay type: cell-based
In short: (§1)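 Patient specimens in boric acid preservative were culture-incubated, diluted to 0.5 McFarland and exposed for 12-16 hours to antimicrobials in broth at their sensitivity breakpoint concentration(s), with a no-drug well for pathogen load. Growth was then measured by semi-quantitative PCR, either after DNA purification (e.g. magnetic beads) or directly after lysis-buffer treatment without extraction.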

[2] = system: pathogens of clinical samples; experiment: Molecular phenotypic antimicrobial susceptibility test of clinical samples, extraction DNA purification step prior to PCR (Table 6); assay type: cell-based
In short: as §1

[3] = E. coli, clinical sample of r10-r24
[4] = E. coli, clinical sample of r158-r172
[5] = E. faecalis, clinical sample of r93-r99
[6] = E. faecalis, clinical sample of r114-r120
[7] = E. faecalis, clinical sample of r151-r157
[8] = K. aerogenes, clinical sample of r136-r150
[9] = K. pneumoniae, clinical sample of r121-r135
[10] = M. morganii, clinical sample of r55-r69
[11] = M. morganii, clinical sample of r70-r84
[12] = P. mirabilis, clinical sample of r25-r39
[13] = P. mirabilis, clinical sample of r40-r54
[14] = S. aureus, clinical sample of r85-r92

Q: `O=C1CN(/N=C/c2ccc([N+](=O)[O-])o2)C(=O)N1` [Nitrofurantoin] was tested. Which “Molecular Antimicrobial Susceptibility Result” value (E. coli; E. coli #1 - WDCM 00090 - 6.2×E3, specimen with <10,000 cells/mL, direct PCR after 16 hours of incubation) did it give?
A: Sensitive (Antimicrobial wells with pathogen load detected below the control wells (typically >2 cycle thresholds later) may be reported as Sensitive)

Q: What about the “Ct at Sensitive Breakpoint” value (E. coli; E. coli #1 - WDCM 00090 - 6.2×E3, specimen with <10,000 cells/mL, direct PCR after 16 hours of incubation, Ct at control 13.787) of the same compound?
A: 27.90

Q: What about the “Molecular Antimicrobial Susceptibility Result” value (E. coli; E. coli #2 - WDCM 00090 - 6.2×E3, specimen with <10,000 cells/mL, direct PCR after 16 hours of incubation) of the same compound?
A: Sensitive (Antimicrobial wells with pathogen load detected below the control wells (typically >2 cycle thresholds later) may be reported as Sensitive)

Q: What about the “Ct at Sensitive Breakpoint” value (E. coli; E. coli #2 - WDCM 00090 - 6.2×E3, specimen with <10,000 cells/mL, direct PCR after 16 hours of incubation, Ct at control 13.46) of the same compound?
A: 28.97

Q: What about the “Ct at Sensitive Breakpoint” value (E. coli; E. coli isolate JJ1887, direct PCR, Ct at control (average) 12.832) of the same compound?
A: 26.305

Q: And the “Molecular Antimicrobial Susceptibility Result” value (E. coli; E. coli isolate JJ1887, direct PCR, at sensitive breakpoint)?
A: Sensitive (Antimicrobial wells with pathogen load detected below the control wells (typically >2 cycle thresholds later) may be reported as Sensitive)

Q: And the “Molecular Antibiotic Susceptibility Result” value [1, 3]?
A: Sensitive (Antimicrobial wells with pathogen load detected below the control wells (typically >2 cycle thresholds later) may be reported as Sensitive)

Q: And the Ct ([1]; E. coli, clinical sample of r10-r24, Ct control avg 12.97)?
A: 24.883

Q: What about the “Molecular Antibiotic Susceptibility Result” value [1, 4] of the same compound?
A: Sensitive (Antimicrobial wells with pathogen load detected below the control wells (typically >2 cycle thresholds later) may be reported as Sensitive)

Q: What about the Ct ([1]; E. coli, clinical sample of r158-r172, Ct control avg 12.894) of the same compound?
A: 27.377

Q: What about the “Molecular Antibiotic Susceptibility Result” value [1, 5] of the same compound?
A: Sensitive (Antimicrobial wells with pathogen load detected below the control wells (typically >2 cycle thresholds later) may be reported as Sensitive)

Q: And the Ct ([1]; E. faecalis, clinical sample of r93-r99, Ct control avg 22.011)?
A: 36.826

Q: What about the Ct ([1]; E. faecalis, clinical sample of r100-r106, Ct control avg 21.027) of the same compound?
A: 33.684

Q: What about the Ct ([1]; E. faecalis, clinical sample of r107-r113, Ct control avg 20.529) of the same compound?
A: 32.294

Q: And the “Molecular Antibiotic Susceptibility Result” value [1, 6]?
A: Sensitive (Antimicrobial wells with pathogen load detected below the control wells (typically >2 cycle thresholds later) may be reported as Sensitive)

Q: And the Ct ([1]; E. faecalis, clinical sample of r114-r120, Ct control avg 20.909)?
A: 32.771

Q: What about the “Molecular Antibiotic Susceptibility Result” value [1, 7] of the same compound?
A: Sensitive (Antimicrobial wells with pathogen load detected below the control wells (typically >2 cycle thresholds later) may be reported as Sensitive)

Q: And the Ct ([1]; E. faecalis, clinical sample of r151-r157, Ct control avg 18.551)?
A: 37.634

Q: What about the “Molecular Antibiotic Susceptibility Result” value [1, 8] of the same compound?
A: Sensitive (Antimicrobial wells with pathogen load detected below the control wells (typically >2 cycle thresholds later) may be reported as Sensitive)

Q: What about the Ct ([1]; K. aerogenes, clinical sample of r136-r150, Ct control avg 13.854) of the same compound?
A: 29.821

Q: And the “Molecular Antibiotic Susceptibility Result” value [1, 9]?
A: Sensitive (Antimicrobial wells with pathogen load detected below the control wells (typically >2 cycle thresholds later) may be reported as Sensitive)

Q: What about the Ct ([1]; K. pneumoniae, clinical sample of r121-r135, Ct control avg […]) of the same compound?
A: 28.708

Q: And the “Molecular Antibiotic Susceptibility Result” value [1, 10]?
A: Sensitive (Antimicrobial wells with pathogen load detected below the control wells (typically >2 cycle thresholds later) may be reported as Sensitive)

Q: And the Ct ([1]; M. morganii, clinical sample of r55-r69, Ct control avg 12.09)?
A: 28.588

Q: And the “Molecular Antibiotic Susceptibility Result” value [1, 11]?
A: Sensitive (Antimicrobial wells with pathogen load detected below the control wells (typically >2 cycle thresholds later) may be reported as Sensitive)

Q: And the Ct ([1]; M. morganii, clinical sample of r70-r84, Ct control avg 11.677)?
A: 29.959

Q: What about the “Molecular Antibiotic Susceptibility Result” value [1, 12] of the same compound?
A: Resistant

Q: What about the Ct ([1]; P. mirabilis, clinical sample of r25-r39, Ct control avg 11.801) of the same compound?
A: 12.013

Q: And the “Molecular Antibiotic Susceptibility Result” value [1, 13]?
A: Resistant

Q: What about the Ct ([1]; P. mirabilis, clinical sample of r40-r54, Ct control avg 10.06) of the same compound?
A: 10.329

Q: And the “Molecular Antibiotic Susceptibility Result” value [1, 14]?
A: Sensitive (Antimicrobial wells with pathogen load detected below the control wells (typically >2 cycle thresholds later) may be reported as Sensitive)

Q: What about the Ct ([1]; S. aureus, clinical sample of r85-r92, Ct control avg 20.309) of the same compound?
A: 32.477

Q: And the “Molecular Antibiotic Susceptibility Result” value [2, 3]?
A: Sensitive (Antimicrobial wells with pathogen load detected below the control wells (typically >2 cycle thresholds later) may be reported as Sensitive)

Q: What about the Ct ([2]; E. coli, clinical sample of r10-r24, Ct Control Avg 18.112) of the same compound?
A: 29.981

Q: What about the “Molecular Antibiotic Susceptibility Result” value [2, 4] of the same compound?
A: Sensitive (Antimicrobial wells with pathogen load detected below the control wells (typically >2 cycle thresholds later) may be reported as Sensitive)

Q: And the Ct ([2]; E. coli, clinical sample of r158-r172, Ct Control Avg 20.146)?
A: 34.794

Q: And the “Molecular Antibiotic Susceptibility Result” value [2, 5]?
A: Sensitive (Antimicrobial wells with pathogen load detected below the control wells (typically >2 cycle thresholds later) may be reported as Sensitive)

Q: What about the Ct ([2]; E. faecalis, clinical sample of r93-r99, Ct Control Avg 22.987) of the same compound?
A: 38.744

Q: What about the Ct ([2]; E. faecalis, clinical sample of r100-r106, Ct Control Avg 23.073) of the same compound?
A: 37.449

Q: What about the Ct ([2]; E. faecalis, clinical sample of r107-r113, Ct Control Avg 22.144) of the same compound?
A: 32.584

Q: And the “Molecular Antibiotic Susceptibility Result” value [2, 6]?
A: Sensitive (Antimicrobial wells with pathogen load detected below the control wells (typically >2 cycle thresholds later) may be reported as Sensitive)

Q: And the Ct ([2]; E. faecalis, clinical sample of r114-r120, Ct Control Avg 20.822)?
A: 34.318

Q: What about the “Molecular Antibiotic Susceptibility Result” value [2, 7] of the same compound?
A: Sensitive (Antimicrobial wells with pathogen load detected below the control wells (typically >2 cycle thresholds later) may be reported as Sensitive)

Q: What about the “Molecular Antibiotic Susceptibility Result” value [2, 8] of the same compound?
A: Sensitive (Antimicrobial wells with pathogen load detected below the control wells (typically >2 cycle thresholds later) may be reported as Sensitive)

Q: And the Ct ([2]; K. aerogenes, clinical sample of r136-r150, Ct Control Avg 19.994)?
A: 38.755

Q: What about the “Molecular Antibiotic Susceptibility Result” value [2, 9] of the same compound?
A: Sensitive (Antimicrobial wells with pathogen load detected below the control wells (typically >2 cycle thresholds later) may be reported as Sensitive)

Q: And the Ct ([2]; K. pneumoniae, clinical sample of r121-r135, Ct Control Avg 24.272)?
A: 33.13

Q: And the “Molecular Antibiotic Susceptibility Result” value [2, 10]?
A: Sensitive (Antimicrobial wells with pathogen load detected below the control wells (typically >2 cycle thresholds later) may be reported as Sensitive)

Q: What about the “Molecular Antibiotic Susceptibility Result” value [2, 11] of the same compound?
A: Sensitive (Antimicrobial wells with pathogen load detected below the control wells (typically >2 cycle thresholds later) may be reported as Sensitive)

Q: What about the “Molecular Antibiotic Susceptibility Result” value [2, 12] of the same compound?
A: Resistant

Q: And the Ct ([2]; P. mirabilis, clinical sample of r25-r39, Ct Control Avg 26.064)?
A: 22.903

Q: What about the “Molecular Antibiotic Susceptibility Result” value [2, 13] of the same compound?
A: Resistant

Q: What about the Ct ([2]; P. mirabilis, clinical sample of r40-r54, Ct Control Avg 26.987) of the same compound?
A: 23.887

Q: What about the “Molecular Antibiotic Susceptibility Result” value [2, 14] of the same compound?
A: Sensitive (Antimicrobial wells with pathogen load detected below the control wells (typically >2 cycle thresholds later) may be reported as Sensitive)

Q: And the Ct ([2]; S. aureus, clinical sample of r85-r92, Ct Control Avg 24.32)?
A: 30.822
